ChEMBL document CHEMBL1131525, “Synthesis and anti-inflammatory activity of chalcone derivatives” (Bioorg Med Chem Lett, 1998)

Columns and labels:
[1] = molecular target: T1, Prostaglandin G/H synthase 2 (Homo sapiens) (UniProt P35354); test: Inhibition of COX-2 activity in intact human monocytes; assay type: cell-based; design: concentration or dose not given beside the values; details: concentration not given here
T1 sequence (whole entry): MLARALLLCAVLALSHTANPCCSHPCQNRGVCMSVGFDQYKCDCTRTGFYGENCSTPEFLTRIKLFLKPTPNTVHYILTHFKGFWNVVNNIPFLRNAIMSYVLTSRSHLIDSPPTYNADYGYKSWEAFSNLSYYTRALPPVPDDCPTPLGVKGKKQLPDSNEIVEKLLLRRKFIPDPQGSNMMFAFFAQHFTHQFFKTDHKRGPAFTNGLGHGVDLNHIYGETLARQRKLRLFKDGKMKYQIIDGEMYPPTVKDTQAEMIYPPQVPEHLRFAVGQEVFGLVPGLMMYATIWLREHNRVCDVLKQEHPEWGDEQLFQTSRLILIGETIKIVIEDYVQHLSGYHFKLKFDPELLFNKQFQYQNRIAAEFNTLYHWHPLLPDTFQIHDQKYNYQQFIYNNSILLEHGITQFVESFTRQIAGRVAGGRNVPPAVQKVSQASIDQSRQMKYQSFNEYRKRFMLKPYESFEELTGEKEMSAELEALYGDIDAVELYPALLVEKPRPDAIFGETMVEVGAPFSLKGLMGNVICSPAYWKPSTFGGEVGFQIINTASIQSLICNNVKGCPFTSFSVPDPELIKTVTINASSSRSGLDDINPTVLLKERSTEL

Mus musculus [2] = test: In vivo inhibition of compound required to inhibit LTB4 levels in zymosan treated mouse air pouch at a dose of 100 nmol/pouch; assay type: functional
Homo sapiens [3] = species: Homo sapiens; test: (§1) […] required for elastase release in stimulated human neutrophils; assay type: functional; design: concentration or dose not given beside the values
Mus musculus [4] = test: In vivo inhibition of compound required to inhibit TNF-alpha levels in zymosan treated mouse air pouch at a dose of 100 nmol/pouch; assay type: functional
Mus musculus [5] = test: In vivo inhibition of compound required for migration of neutrophils into the mouse pouch at the dose of 100 nmol/pouch; assay type: functional
[6] = molecular target: T2, Polyunsaturated fatty acid 5-lipoxygenase (Homo sapiens) (UniProt P09917); test: (§2) Inhibitory concentration required against 5-lipoxygenase activity in cytosolic fractions of human neutrophils; details: concentration not given here
T2 sequence (whole entry): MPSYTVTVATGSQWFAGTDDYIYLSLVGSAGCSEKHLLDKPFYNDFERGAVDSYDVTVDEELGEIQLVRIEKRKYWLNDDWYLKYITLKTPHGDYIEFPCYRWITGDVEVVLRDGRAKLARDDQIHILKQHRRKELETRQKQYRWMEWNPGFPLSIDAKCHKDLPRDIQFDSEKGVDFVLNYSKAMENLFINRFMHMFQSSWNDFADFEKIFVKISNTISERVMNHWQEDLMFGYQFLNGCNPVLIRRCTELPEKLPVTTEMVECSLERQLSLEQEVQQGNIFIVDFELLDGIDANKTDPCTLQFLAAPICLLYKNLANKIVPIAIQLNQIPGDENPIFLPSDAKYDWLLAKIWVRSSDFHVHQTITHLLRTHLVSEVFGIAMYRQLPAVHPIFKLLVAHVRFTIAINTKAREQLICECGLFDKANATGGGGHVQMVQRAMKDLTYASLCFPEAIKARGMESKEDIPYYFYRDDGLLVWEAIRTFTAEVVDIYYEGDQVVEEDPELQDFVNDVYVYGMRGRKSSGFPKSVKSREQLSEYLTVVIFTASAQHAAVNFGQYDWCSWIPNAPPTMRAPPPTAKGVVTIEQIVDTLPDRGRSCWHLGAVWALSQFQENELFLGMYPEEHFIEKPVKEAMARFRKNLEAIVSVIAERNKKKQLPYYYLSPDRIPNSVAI

Mus musculus [7] = test: In vivo inhibition of compound required to inhibit PGE-2 levels in zymosan treated mouse air pouch at a dose of 100 nmol/pouch; assay type: functional
Homo sapiens [8] = species: Homo sapiens; test: (§3) Inhibitory concentration required for LTB4 synthesis in stimulated human neutrophils; assay type: functional
[9] = molecular target: T3, Polyunsaturated fatty acid 5-lipoxygenase (Homo sapiens, UniProt P09917); test: Inhibitory concentration required against 5-lipoxygenase activity in intact cells of human neutrophils; assay type: cell-based
T3 sequence (P09917 whole entry): T2 sequence (whole entry)

[10] = molecular target: T3, Polyunsaturated fatty acid 5-lipoxygenase; test: as §2
Homo sapiens [11] = species: Homo sapiens; test: as §1; assay type: functional
Homo sapiens [12] = species: Homo sapiens; test: as §3; assay type: functional, organism-based
[13] = Inhibitory concentration required for scavenging of superoxide anion generated by hypoxanthine / xanthine oxidase system; assay type: functional
Homo sapiens [14] = species: Homo sapiens; test: Inhibitory concentration required for scavenging of superoxide anion generated by stimulated human neutrophils; assay type: functional

| SMILES | inhibition [1] [%] | Inhibition (Mus musculus [2]) [%] | Inhibition (Homo sapiens [3]) [%] | Inhibition (Mus musculus [4]) [%] | Inhibition (Mus musculus [5]) [%] | inhibition [6] [%] | Inhibition (Mus musculus [7]) [%] | Inhibition (Homo sapiens [8]) [%] | IC50 [9] [µM] | IC50 [10] [µM] | IC50 (Homo sapiens [11]) [µM] | IC50 (Homo sapiens [12]) [µM] | IC50 [13] [µM] | IC50 (Homo sapiens [14]) [µM] |
| --- | --- | --- | --- | --- | --- | --- | --- | --- | --- | --- | --- | --- | --- | --- |
| COc1ccc(C(=O)/C=C/c2cc3ccccc3nc2Cl)cc1 | 30 | 20.9 | 0 | 0 | 20.4 | 42.3 | 23.2 | 30.2 | – | – | – | – | – | – |
| O=C(/C=C/c1cc2ccccc2nc1Cl)c1ccc(C(F)(F)F)cc1 | 35.6 | 13 | 0 | 24.5 | 39.7 | 32.9 | 46.5 | 36.9 | – | – | – | – | – | – |
| CCn1c(=O)ccc2cc(COc3cc(F)cc(C4(OC)CCOCC4)c3)ccc21 | – | – | – | – | – | – | – | – | 0.06 | 0.09 | – | – | – | – |
| Cc1coc(C)c1C(=O)/C=C/c1cc2ccccc2nc1Cl | 0 | 19.5 | – | 34.4 | 47.1 | – | 56.8 | 53.5 | – | 3.5 | 8.4 | – | – | – |
| COc1cccc(/C=C/C(=O)c2ccc(Br)cc2)c1OC | 0 | 40 | – | 44 | 35.7 | – | 62 | – | – | 6.1 | 2.2 | 6.7 | – | – |
| O=C(/C=C/c1ccco1)c1ccc(Cl)c(Cl)c1 | 0 | 0 | – | 0 | 47.3 | – | 71 | – | – | 4.1 | 5.4 | 4.8 | – | – |
| COc1ccc(C(=O)/C=C/c2ccc(N(C)C)cc2)cc1OC | 0 | 41.1 | 0 | 64.2 | 20.6 | 37.9 | 75.8 | 0 | – | – | – | – | 0.3 | 0.1 |
| O=C(/C=C/c1cc2ccccc2nc1Cl)c1cccnc1 | 46.6 | 30.7 | 0 | 12.1 | 53 | 30.2 | 69.5 | 26.4 | – | – | – | – | – | – |
| COc1cc(/C=C/C(=O)c2cc(OC)c(OC)c(OC)c2)cc(OC)c1OC | 0 | 27.5 | 0 | 25.7 | 35 | 14.6 | 0 | 21.1 | – | – | – | – | – | – |
| COc1cc2cc(/C=C/C(=O)c3ccccc3)c(Cl)nc2cc1OC | 0 | 0 | 0 | 35.7 | 0 | 42 | 29.9 | 42.2 | – | – | – | – | – | – |
| COc1ccc(C(=O)/C=C/c2cc3ccccc3nc2Cl)c(OC)c1 | 41.8 | 11.1 | 0 | 52.1 | 0 | 27.6 | 36.2 | 10.7 | – | – | – | – | – | – |
| COc1cc2cc(/C=C/C(=O)c3ccc(C)cc3)c(Cl)nc2cc1OC | 0 | 15.2 | 40.7 | 11.2 | 38.6 | 61 | 59.5 | – | – | – | – | 9.8 | – | – |
| O=C(/C=C/c1cc2ccccc2nc1Cl)c1ccc(F)cc1 | 36.3 | 18.5 | – | 0 | 36.6 | – | 58.3 | – | – | 3.9 | 3 | 6.2 | – | – |
| COc1ccc(C(=O)/C=C/c2ccc(C(F)(F)F)cc2)c(OC)c1 | 0 | 45.9 | 0 | 0 | 0 | 21.7 | 25.5 | 35.4 | – | – | – | – | – | – |
